Reference: US11883372B2, “Pharmaceutical composition” (MEXICHEM FLUOR S.A. DE C.V., priority 2016, dated 2024)

Assay: In vitro aerosolization performance of MDI formulations (Next Generation Impactor, HPLC)
Type: physicochemical
Settings: for FPFED (%) fine particle fraction of the emitted dose / Fine particle Dose (μg ± S.D.) / MMAD ± GSD / Emitted Dose (μg ± S.D.): NGI at 30 L.min^−1; for MMAD ± GSD: in µm (unit assumed); for Emitted Dose (μg ± S.D.): nominal dose salmeterol xinafoate 25 μg, fluticasone propionate 125 μg
Experimental: The nominal dose of salmeterol xinafoate was 25 μg and the nominal dose of fluticasone propionate was 125 μg.
A 100 mm×4.6 mm Ascentis Express […] column with a 2.7 μm particle size was used for the analysis.

[1] = combination MDI formulation in HFA-134a
[2] = combination MDI formulation in HFA-152a

CCC(=O)O[C@]1(C(=O)SCF)[C@H](C)C[C@H]2[C@@H]3C[C@H](F)C4=CC(=O)C=C[C@]4(C)[C@@]3(F)[C@@H](O)C[C@@]21C [Fluticasone Propionate, fluticasone propionate]
fine particle fractions of the emitted doses upon aerosolization, HFA-152a compared with HFA-134a (HFA-152a used as the propellant, versus HFA-134a (Tables 2 and 3)): significantly better
FPFED (%) fine particle fraction of the emitted dose [1]: 31.0%
Fine particle Dose (μg ± S.D.) [1]: 31.6 ± 3.3 µg
MMAD ± GSD [1]: 3.8 ± 2.5
Emitted Dose (μg ± S.D.) [1]: 101.7 ± 8.7 µg
FPFED (%) fine particle fraction of the emitted dose [2]: 40.0%
Fine particle Dose (μg ± S.D.) [2]: 43.5 ± 3.4 µg
MMAD ± GSD [2]: 2.9 ± 2.1
Emitted Dose (μg ± S.D.) [2]: 108.7 ± 1.1 µg
